Measured values from the NIST ThermoML archive (doi:10.1021/je5009679).

Details: Liquid; for viscosity: Concentric cylinders viscometry

CCn1cc[n+](C)c1.CO[PH](=O)[O-] [1-ethyl-3-methylimidazolium methyl phosphonate]
101.33 kPa
Details | viscosity [mPa·s]
293.15 K | 156.4
303.15 K | 89.9
313.15 K | 56.11
323.15 K | 37.41
333.15 K | 26.3
343.15 K | 19.32
353.15 K | 14.71
363.15 K | 11.54
373.15 K | 9.289

Details | mass density [kg/m3]
293.15 K, 101.33 kPa, Vibrating tube method | 1198.3
303.15 K, 101.33 kPa, Vibrating tube method | 1191.7
311.2 K, 10000 kPa, Bellows volumetry | 1189.6
311.2 K, 20000 kPa, Bellows volumetry | 1193.3
311.2 K, 30000 kPa, Bellows volumetry | 1197.1
311.2 K, 40000 kPa, Bellows volumetry | 1200.8
311.2 K, 50000 kPa, Bellows volumetry | 1204.4
311.2 K, 60000 kPa, Bellows volumetry | 1207.8
311.2 K, 70000 kPa, Bellows volumetry | 1211.3
311.2 K, 80000 kPa, Bellows volumetry | 1214.6
311.2 K, 90000 kPa, Bellows volumetry | 1217.9
311.2 K, 100000 kPa, Bellows volumetry | 1221
311.2 K, 110000 kPa, Bellows volumetry | 1224.2
311.2 K, 120000 kPa, Bellows volumetry | 1227.2
311.2 K, 130000 kPa, Bellows volumetry | 1230.3
311.2 K, 140000 kPa, Bellows volumetry | 1233.1
311.2 K, 150000 kPa, Bellows volumetry | 1236.1
311.2 K, 160000 kPa, Bellows volumetry | 1238.9
311.2 K, 170000 kPa, Bellows volumetry | 1241.7
311.2 K, 180000 kPa, Bellows volumetry | 1244.5
311.2 K, 190000 kPa, Bellows volumetry | 1247.2
311.2 K, 200000 kPa, Bellows volumetry | 1249.9
313.15 K, 101.33 kPa, Vibrating tube method | 1185.3
323.15 K, 101.33 kPa, Vibrating tube method | 1178.8
330.9 K, 10000 kPa, Bellows volumetry | 1176.8
330.9 K, 20000 kPa, Bellows volumetry | 1180.9
330.9 K, 30000 kPa, Bellows volumetry | 1184.9
330.9 K, 40000 kPa, Bellows volumetry | 1188.8
330.9 K, 50000 kPa, Bellows volumetry | 1192.5
330.9 K, 60000 kPa, Bellows volumetry | 1196.1
330.9 K, 70000 kPa, Bellows volumetry | 1199.8
330.9 K, 80000 kPa, Bellows volumetry | 1203.3
330.9 K, 90000 kPa, Bellows volumetry | 1206.6
330.9 K, 100000 kPa, Bellows volumetry | 1210
330.9 K, 110000 kPa, Bellows volumetry | 1213.3
330.9 K, 120000 kPa, Bellows volumetry | 1216.4
330.9 K, 130000 kPa, Bellows volumetry | 1219.5
330.9 K, 140000 kPa, Bellows volumetry | 1222.5
330.9 K, 150000 kPa, Bellows volumetry | 1225.4
330.9 K, 160000 kPa, Bellows volumetry | 1228.3
330.9 K, 170000 kPa, Bellows volumetry | 1231.2
330.9 K, 180000 kPa, Bellows volumetry | 1234
330.9 K, 190000 kPa, Bellows volumetry | 1236.7
330.9 K, 200000 kPa, Bellows volumetry | 1239.6
333.15 K, 101.33 kPa, Vibrating tube method | 1172.5
343.15 K, 101.33 kPa, Vibrating tube method | 1166.1
351.3 K, 10000 kPa, Bellows volumetry | 1164.2
351.3 K, 20000 kPa, Bellows volumetry | 1168.7
351.3 K, 30000 kPa, Bellows volumetry | 1172.8
351.3 K, 40000 kPa, Bellows volumetry | 1176.9
351.3 K, 50000 kPa, Bellows volumetry | 1180.9
351.3 K, 60000 kPa, Bellows volumetry | 1184.7
351.3 K, 70000 kPa, Bellows volumetry | 1188.4
351.3 K, 80000 kPa, Bellows volumetry | 1192
351.3 K, 90000 kPa, Bellows volumetry | 1195.5
351.3 K, 100000 kPa, Bellows volumetry | 1198.9
351.3 K, 110000 kPa, Bellows volumetry | 1202.1
351.3 K, 120000 kPa, Bellows volumetry | 1205.4
351.3 K, 130000 kPa, Bellows volumetry | 1208.7
351.3 K, 140000 kPa, Bellows volumetry | 1211.8
351.3 K, 150000 kPa, Bellows volumetry | 1214.8
351.3 K, 160000 kPa, Bellows volumetry | 1217.8
351.3 K, 170000 kPa, Bellows volumetry | 1220.8
351.3 K, 180000 kPa, Bellows volumetry | 1223.7
351.3 K, 190000 kPa, Bellows volumetry | 1226.6
351.3 K, 200000 kPa, Bellows volumetry | 1229.5
353.15 K, 101.33 kPa, Vibrating tube method | 1159.9
363.15 K, 101.33 kPa, Vibrating tube method | 1153.8
371.3 K, 10000 kPa, Bellows volumetry | 1152.1
371.3 K, 20000 kPa, Bellows volumetry | 1156.2
371.3 K, 30000 kPa, Bellows volumetry | 1161
371.3 K, 40000 kPa, Bellows volumetry | 1165.2
371.3 K, 50000 kPa, Bellows volumetry | 1169.2
371.3 K, 60000 kPa, Bellows volumetry | 1173.3
371.3 K, 70000 kPa, Bellows volumetry | 1177.2
371.3 K, 80000 kPa, Bellows volumetry | 1180.9
371.3 K, 90000 kPa, Bellows volumetry | 1184.5
371.3 K, 100000 kPa, Bellows volumetry | 1188.2
371.3 K, 110000 kPa, Bellows volumetry | 1191.6
371.3 K, 120000 kPa, Bellows volumetry | 1195
371.3 K, 130000 kPa, Bellows volumetry | 1198.3
371.3 K, 140000 kPa, Bellows volumetry | 1201.6
371.3 K, 150000 kPa, Bellows volumetry | 1204.7
371.3 K, 160000 kPa, Bellows volumetry | 1207.9
371.3 K, 170000 kPa, Bellows volumetry | 1210.9
371.3 K, 180000 kPa, Bellows volumetry | 1213.9
371.3 K, 190000 kPa, Bellows volumetry | 1216.8
371.3 K, 200000 kPa, Bellows volumetry | 1219.8
373.15 K, 101.33 kPa, Vibrating tube method | 1147.6
391.2 K, 10000 kPa, Bellows volumetry | 1140.6
391.2 K, 20000 kPa, Bellows volumetry | 1144.9
391.2 K, 30000 kPa, Bellows volumetry | 1149.5
391.2 K, 40000 kPa, Bellows volumetry | 1154
391.2 K, 50000 kPa, Bellows volumetry | 1158.2
391.2 K, 60000 kPa, Bellows volumetry | 1162.3
391.2 K, 70000 kPa, Bellows volumetry | 1166.4
391.2 K, 80000 kPa, Bellows volumetry | 1170.4
391.2 K, 90000 kPa, Bellows volumetry | 1174.1
391.2 K, 100000 kPa, Bellows volumetry | 1177.9
391.2 K, 110000 kPa, Bellows volumetry | 1181.4
391.2 K, 120000 kPa, Bellows volumetry | 1184.9
391.2 K, 130000 kPa, Bellows volumetry | 1188.3
391.2 K, 140000 kPa, Bellows volumetry | 1191.6
391.2 K, 150000 kPa, Bellows volumetry | 1194.9
391.2 K, 160000 kPa, Bellows volumetry | 1198.1
391.2 K, 170000 kPa, Bellows volumetry | 1201.2
391.2 K, 180000 kPa, Bellows volumetry | 1204.2
391.2 K, 190000 kPa, Bellows volumetry | 1207.2
391.2 K, 200000 kPa, Bellows volumetry | 1210.2
411.1 K, 10000 kPa, Bellows volumetry | 1128.7
411.1 K, 20000 kPa, Bellows volumetry | 1133.3
411.1 K, 30000 kPa, Bellows volumetry | 1138.1
411.1 K, 40000 kPa, Bellows volumetry | 1142.8
411.1 K, 50000 kPa, Bellows volumetry | 1147.3
411.1 K, 60000 kPa, Bellows volumetry | 1151.7
411.1 K, 70000 kPa, Bellows volumetry | 1155.8
411.1 K, 80000 kPa, Bellows volumetry | 1159.9
411.1 K, 90000 kPa, Bellows volumetry | 1163.9
411.1 K, 100000 kPa, Bellows volumetry | 1167.6
411.1 K, 110000 kPa, Bellows volumetry | 1171.3
411.1 K, 120000 kPa, Bellows volumetry | 1174.9
411.1 K, 130000 kPa, Bellows volumetry | 1178.4
411.1 K, 140000 kPa, Bellows volumetry | 1181.8
411.1 K, 150000 kPa, Bellows volumetry | 1185.3
411.1 K, 160000 kPa, Bellows volumetry | 1188.5
411.1 K, 170000 kPa, Bellows volumetry | 1191.7
411.1 K, 180000 kPa, Bellows volumetry | 1194.8
411.1 K, 190000 kPa, Bellows volumetry | 1197.9
411.1 K, 200000 kPa, Bellows volumetry | 1201
